Test results reported in ChEMBL document CHEMBL1127007, “Quinazolinones 2: QSAR and in vivo characterization of AT1 selective AII antagonists” (Bioorg Med Chem Lett, 1993).

Experiments:
[1] = biological target: T1, Type-2 angiotensin II receptor (Homo sapiens) (UniProt P50052); test: In vitro antagonist activity against the Angiotensin II (type 2) receptor.; type: functional
T1 sequence (whole entry): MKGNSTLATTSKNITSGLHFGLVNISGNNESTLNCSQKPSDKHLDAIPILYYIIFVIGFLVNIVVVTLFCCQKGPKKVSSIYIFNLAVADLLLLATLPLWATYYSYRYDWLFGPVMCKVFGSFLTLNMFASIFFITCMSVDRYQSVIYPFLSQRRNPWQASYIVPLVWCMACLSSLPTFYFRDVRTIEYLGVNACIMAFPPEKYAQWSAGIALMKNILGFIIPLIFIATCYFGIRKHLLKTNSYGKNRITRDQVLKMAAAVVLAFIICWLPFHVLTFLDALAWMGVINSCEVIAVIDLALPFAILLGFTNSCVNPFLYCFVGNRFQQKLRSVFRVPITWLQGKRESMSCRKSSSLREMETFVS

[2] = biological target: Angiotensin II receptor (Rattus norvegicus) (UniProt P29089+P25095+P35351); test: Duration of action as time for pressor response to fall below 30% for a single bolus by intravenous dose; type: functional, organism-based
Rattus norvegicus [3] = test: Compound was evaluated in vivo for inhibition of the AII pressor response in normotensive rat at dose 1 mg/kg, iv after 0.2 hour; type: functional
Rattus norvegicus [4] = test: Compound was evaluated in vivo for inhibition of the AII pressor response in normotensive rat at dose 0.3 mg/kg, iv; type: functional
[5] = biological target: T2, Type-1 angiotensin II receptor (Oryctolagus cuniculus, UniProt P34976); test: Ability to displace [125I]Sar1-Ile8-AII from angiotensin II receptor, type 1 in rabbit aorta in presence of 0.2% bovine serum albumin (BSA) was determined in vitro; type: tissue-based
T2 sequence (P34976 whole entry): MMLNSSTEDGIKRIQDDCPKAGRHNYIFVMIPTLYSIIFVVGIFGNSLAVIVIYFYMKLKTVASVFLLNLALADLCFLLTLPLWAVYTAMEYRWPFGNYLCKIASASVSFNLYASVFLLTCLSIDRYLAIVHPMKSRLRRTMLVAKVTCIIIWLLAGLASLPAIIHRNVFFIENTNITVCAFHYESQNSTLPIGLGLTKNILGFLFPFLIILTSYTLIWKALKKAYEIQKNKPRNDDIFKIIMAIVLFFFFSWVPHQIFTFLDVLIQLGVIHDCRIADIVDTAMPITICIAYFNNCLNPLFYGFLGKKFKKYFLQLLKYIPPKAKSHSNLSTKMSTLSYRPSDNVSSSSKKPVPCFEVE

Rattus norvegicus [6] = test: The duration of action is expressed as the time for the % inhibition of pressor response to fall below 30% for a single bolus of the drug administered perorally.; type: functional
Rattus norvegicus [7] = test: Compound was evaluated in vivo for inhibition of the AII pressor response in normotensive rat at dose 1 mg/kg, iv; type: functional
Rattus norvegicus [8] = test: Compound was evaluated in vivo for inhibition of the AII pressor response in normotensive rat at dose 3 mg/kg, iv after 2.5 hour; type: functional
Rattus norvegicus [9] = test: Compound was evaluated in vivo for inhibition of the AII pressor response in normotensive rat at dose 3 mg/kg, p.o. after 4.2 hour; type: functional; conditions: route oral
[10] = biological target: T2, Type-1 angiotensin II receptor; test: Displacement of [125I]Sar1-Ile8-AII (without BSA) from type 1 Angiotensin II receptor of rabbit aorta; type: tissue-based
Rattus norvegicus [11] = test: Compound was evaluated in vivo for inhibition of the AII pressor response in normotensive rat at dose 1 mg/kg, iv after 1 hour; type: functional
Rattus norvegicus [12] = test: Compound was evaluated in vivo for inhibition of the AII pressor response in normotensive rat at dose 1 mg/kg, iv after 4.5 hour; type: functional
Rattus norvegicus [13] = test: Compound was evaluated in vivo for inhibition of the AII pressor response in normotensive rat at dose 1 mg/kg, p.o. after 0.2 hour; type: functional; conditions: route oral

| SMILES | Activity [1] [nM] | Duration [2] [h] | IC50 [5] [nM] | other results |
| --- | --- | --- | --- | --- |
| CCCCc1nc2cc(OC)c(OC)cc2c(=O)n1Cc1ccc(-c2ccccc2-c2nn[nH]n2)cc1 | > 1000 | 0.2 |  | inhibition in vivo at 1 mg/kg (Rattus norvegicus [3]): 30% |
| CCCCc1nc2ccc(N(C)C(=O)OCc3ccccc3)cc2c(=O)n1Cc1ccc(-c2ccccc2-c2nn[nH]n2)cc1 | > 1000 | 0 |  | inhibition in vivo at 0.3 mg/kg (Rattus norvegicus [4]): 28% |
| Cc1ccc2nc(-c3ccc(-c4ccccc4C(=O)O)cc3)n(Cc3ccc(-c4ccccc4-c4nn[nH]n4)cc3)c(=O)c2c1 |  |  | 92 |  |
| CCCCc1nc2ccc(C)cc2c(=O)n1Cc1ccc(-c2ccccc2-c2nn[nH]n2)cc1 | > 1000 |  |  | Duration (Rattus norvegicus [6]): 4.2 h; inhibition in vivo at 1 mg/kg (Rattus norvegicus [7]): 28%; inhibition in vivo at 3 mg/kg (Rattus norvegicus [8]): 76%; inhibition in vivo at 3 mg/kg (Rattus norvegicus [9]): 64% |
| O=C(O)c1ccccc1-c1ccc(-c2nc3ccc([N+](=O)[O-])cc3c(=O)n2Cc2ccc(-c3ccccc3-c3nnn[nH]3)cc2)cc1 |  |  | 940 |  |
| CCCCc1nc2ccc(N(C)C(=O)OCc3ccccc3)cc2c(=O)n1Cc1ccc(-c2ccccc2-c2nnn[nH]2)cc1 |  |  | 0.83 |  |
| CCCCC(=O)Nc1ccc2nc(CCCC)n(Cc3ccc(-c4ccccc4-c4nnn[nH]4)cc3)c(=O)c2c1 |  |  |  | IC50 [10]: 8.9 nM |
| O=C(O)c1ccccc1-c1ccc(-c2nc3ccccc3c(=O)n2Cc2ccc(-c3ccccc3-c3nn[nH]n3)cc2)cc1 |  |  | 20 |  |
| CCCCc1nc2ccc(NC(=O)OCc3ccccc3)cc2c(=O)n1Cc1ccc(-c2ccccc2-c2nn[nH]n2)cc1 | > 1000 | 1 | 4.3 | inhibition in vivo at 1 mg/kg (Rattus norvegicus [11]): 84% |
| CCCCc1nc2ccc(NCc3ccccc3)cc2c(=O)n1Cc1ccc(-c2ccccc2-c2nn[nH]n2)cc1 |  |  | 8 | IC50 [10]: 1.1 nM |
| CCCCc1nc2ccc(O)cc2c(=O)n1Cc1ccc(-c2ccccc2-c2nnn[nH]2)cc1 |  |  | 27 |  |
| CCCCc1nc2ccc(CC)cc2c(=O)n1Cc1ccc(-c2ccccc2-c2nnn[nH]2)cc1 |  |  | 4 |  |
| CC(=O)Nc1ccc2nc(-c3ccc(-c4ccccc4C(=O)O)cc3)n(Cc3ccc(-c4ccccc4-c4nn[nH]n4)cc3)c(=O)c2c1 |  |  | 50 |  |
| CCCCc1nc2ccc(N)cc2c(=O)n1Cc1ccc(-c2ccccc2-c2nn[nH]n2)cc1 | > 1000 | 4.5 |  | Duration (Rattus norvegicus [6]): 0.2 h; inhibition in vivo at 1 mg/kg (Rattus norvegicus [12]): 93%; inhibition in vivo at 1 mg/kg (Rattus norvegicus [13]): 32% |
| CCCCc1nc2ccc(NS(=O)(=O)C(F)(F)F)cc2c(=O)n1Cc1ccc(-c2ccccc2-c2nn[nH]n2)cc1 |  |  | 120 |  |
| CCCCc1nc2ccc(OC(=O)NC(C)C)cc2c(=O)n1Cc1ccc(-c2ccccc2-c2nn[nH]n2)cc1 | > 1000 | 0 | 1 | inhibition in vivo at 0.3 mg/kg (Rattus norvegicus [4]): 30% |
